Data: patent publication US20260217767A1, “NOVEL A4B7 THIOETHER PEPTIDE DIMER ANTAGONISTS” (Protagonist Therapeutics, Inc., priority 2014, published 2026)
Where a SMILES comes first, the peptide text is derived from it.

Target: T1, RPMI 8866 cells (Homo sapiens, UniProt P13612+P26010)
T1 sequence (P13612 34-1032): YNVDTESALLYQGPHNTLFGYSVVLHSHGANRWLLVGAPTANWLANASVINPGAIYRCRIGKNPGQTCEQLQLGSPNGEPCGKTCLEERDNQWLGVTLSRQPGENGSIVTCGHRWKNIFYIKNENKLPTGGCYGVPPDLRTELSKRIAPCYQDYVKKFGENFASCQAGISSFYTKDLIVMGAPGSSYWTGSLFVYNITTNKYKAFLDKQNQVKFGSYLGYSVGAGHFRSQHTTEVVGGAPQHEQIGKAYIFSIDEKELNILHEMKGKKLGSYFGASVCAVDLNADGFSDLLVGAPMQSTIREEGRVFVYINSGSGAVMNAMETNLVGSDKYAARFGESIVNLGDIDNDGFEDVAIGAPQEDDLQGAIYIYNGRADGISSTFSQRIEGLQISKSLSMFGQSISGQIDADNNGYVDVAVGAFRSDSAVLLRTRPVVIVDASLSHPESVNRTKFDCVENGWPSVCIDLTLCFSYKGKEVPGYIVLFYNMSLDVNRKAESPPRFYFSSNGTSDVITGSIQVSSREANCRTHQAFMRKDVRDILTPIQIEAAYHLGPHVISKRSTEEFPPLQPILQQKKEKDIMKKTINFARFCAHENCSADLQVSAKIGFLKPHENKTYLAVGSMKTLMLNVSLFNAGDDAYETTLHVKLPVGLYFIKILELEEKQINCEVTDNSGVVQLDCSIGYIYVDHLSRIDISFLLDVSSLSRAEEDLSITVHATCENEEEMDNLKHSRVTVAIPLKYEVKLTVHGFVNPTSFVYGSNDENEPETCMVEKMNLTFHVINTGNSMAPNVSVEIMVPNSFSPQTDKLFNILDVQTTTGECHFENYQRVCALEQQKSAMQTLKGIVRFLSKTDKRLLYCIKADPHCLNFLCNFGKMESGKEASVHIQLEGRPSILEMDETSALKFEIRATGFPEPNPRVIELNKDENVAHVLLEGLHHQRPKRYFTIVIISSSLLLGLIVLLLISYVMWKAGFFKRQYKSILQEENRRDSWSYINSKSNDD
T1 sequence (P26010 20-798): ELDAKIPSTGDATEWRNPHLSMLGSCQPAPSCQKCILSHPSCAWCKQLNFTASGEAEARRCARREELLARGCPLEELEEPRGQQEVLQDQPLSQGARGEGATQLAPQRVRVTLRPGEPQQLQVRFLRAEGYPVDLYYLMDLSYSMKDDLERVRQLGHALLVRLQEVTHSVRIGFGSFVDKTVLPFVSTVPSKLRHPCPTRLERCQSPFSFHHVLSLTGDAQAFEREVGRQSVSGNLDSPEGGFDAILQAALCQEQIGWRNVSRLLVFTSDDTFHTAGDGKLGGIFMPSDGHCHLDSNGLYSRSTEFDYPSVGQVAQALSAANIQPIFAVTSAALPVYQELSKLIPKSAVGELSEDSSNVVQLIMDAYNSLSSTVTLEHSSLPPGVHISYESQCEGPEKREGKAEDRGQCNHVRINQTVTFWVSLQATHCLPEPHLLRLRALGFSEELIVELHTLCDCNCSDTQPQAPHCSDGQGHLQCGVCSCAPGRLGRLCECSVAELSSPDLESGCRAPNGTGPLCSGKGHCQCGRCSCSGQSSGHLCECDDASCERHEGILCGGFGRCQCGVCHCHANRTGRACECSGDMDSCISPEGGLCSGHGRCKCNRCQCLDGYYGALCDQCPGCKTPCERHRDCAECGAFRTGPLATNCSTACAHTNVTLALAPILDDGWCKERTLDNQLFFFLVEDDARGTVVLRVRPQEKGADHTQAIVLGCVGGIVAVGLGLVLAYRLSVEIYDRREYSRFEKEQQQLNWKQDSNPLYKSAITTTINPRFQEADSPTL
Experiment: α4β7-MAdCAM Cell Adhesion Assay
Format: cell-based
Conditions: thioether peptide dimers, Table 7; read-out: Cell-Adhesion A4B7
Description: α4β7-MAdCAM Cell Adhesion Assay
RPMI 8866 cells (Sigma #95041316) were cultured in RPMI 1640 HEPES medium (Invitrogen #22400-089) supplemented with 10% serum (Fetal Bovine Serum, Invitrogen #16140-071), 1 mM sodium pyruvate (Invitrogen #11360-070), 2 mM L-glutamine (Invitrogen #25030-081) and Penicillin-Streptomycin (Invitrogen #15140-122) at 100 units of penicillin and 100 μg of streptomycin per ml. The cells were washed two times in DMEM medium (ATCC #30-2002) supplemented with 0.1% BSA, 10 mM HEPES pH 7 and 1 mM MnCl2. The cells were re-suspended in supplemented DMEM medium at a density of 4×10^6 cells/ml.
A Nunc MaxiSorp plate was coated with rh MAdCAM-1/Fc Chimera (R&D #6065-MC) at 200 ng per well in 50 ul per well in 1×PBS and incubated at 4° C. overnight. The solution was then removed by shaking, blocked with 250 ul per well PBS containing 1% BSA, and incubated at 37° C. for 1 hr. The solution was removed by shaking. Peptides were diluted by serial dilution in a final volume of 50 ul per well (2× concentration). To each well, 50 ul of cells (200,000 cells) were added and the plate was incubated at 37° C., 5% CO2 for 30-45 min to allow cell adhesion. The wells were washed manually three times (100 ul per wash) with supplemented DMEM. After the final wash, 100 μl/well of supplemented DMEM and 10 ul/well of MTT reagent (ATTC cat #30-1010K) were added. The plate was incubated at 37° C., 5% CO2 for 2-3 hrs until a purple precipitate is visible. 100 ul of Detergent Reagent (ATTC cat #30-1010K) was added to each well. The plate was covered from the light, wrapped in Parafilm to prevent evaporation, and left overnight at room temperature in the dark. The plate was shaken for 5 min and the absorbance at 570 nm is measured. To calculate the dose response, the absorbance value of control wells not containing cells was subtracted from each test well.

Compared with `CC(C)C[C@@H]1NC(=O)[C@H]([C@@H](C)O)NC(=O)[C@H](CC(=O)O)NC(=O)[C@H](CO)NC(=O)[C@H](CCCNC(=N)N)N(C)C(=O)c2ccccc2CSC[C@@H](C(=O)N[C@@H](Cc2c[nH]c3ccccc23)C(=O)N[C@@H](CCC(=O)O)C(=O)N[C@H](CCCCN)C(N)=O)NC1=O` [compound 145] (HELM PEPTIDE1{[meR].S.D.T.L.C.W.E.[dK].[am]}|CHEM1{[O=C(c1ccccc1C[*:2])[*:1]]}$PEPTIDE1,CHEM1,1:R1-1:R1|PEPTIDE1,CHEM1,6:R3-1:R2$$$V2.0), `COC(=O)CC[C@H](NC(=O)[C@H](Cc1c[nH]c2ccccc12)NC(=O)[C@H]1NC(=O)[C@H](CC(C)C)NC(=O)[C@H]([C@@H](C)O)NC(=O)[C@H](CC(=O)O)NC(=O)[C@H](CO)NC(=O)[C@H](CCCNC(=N)N)N(C)C(=O)c2ccccc2CSC1(C)C)C(=O)N[C@H](CCCCN)C(N)=O` [compound 210] (HELM PEPTIDE1{[meR].S.D.T.L.[Pen].W.E.[dK].[am]}|CHEM1{[CO[*:1]]}|CHEM2{[O=C(c1ccccc1C[*:2])[*:1]]}$PEPTIDE1,CHEM1,8:R3-1:R1|PEPTIDE1,CHEM2,1:R1-1:R1|PEPTIDE1,CHEM2,6:R3-1:R2$$$V2.0) is higher in IC50: 25 to 100 nM for the first, 100 to 1000 nM for the second.

`CC(C)C[C@@H]1NC(=O)[C@H]([C@@H](C)O)NC(=O)[C@H](CC(=O)O)NC(=O)[C@H](CO)NC(=O)[C@H](CCCNC(=N)N)N(C)C(=O)c2ccccc2CSC(C)(C)[C@@H](C(=O)N[C@@H](Cc2c[nH]c3ccccc23)C(=O)N[C@H](CCC(=O)O)C(=O)N[C@@H](Cc2ccc(O)cc2)C(=O)N[C@H](CCCCN)C(N)=O)NC1=O` [compound 195] (HELM PEPTIDE1{[meR].S.D.T.L.[Pen].W.[dE].Y.[dK].[am]}|CHEM1{[O=C(c1ccccc1C[*:2])[*:1]]}$PEPTIDE1,CHEM1,1:R1-1:R1|PEPTIDE1,CHEM1,6:R3-1:R2$$$V2.0) and `CC(C)C[C@@H]1NC(=O)[C@H]([C@@H](C)O)NC(=O)[C@H](CC(=O)O)NC(=O)[C@H](CO)NC(=O)[C@H](CCCNC(=N)N)N(C)C(=O)c2ccccc2CSC(C)(C)[C@@H](C(=O)N[C@@H](Cc2c[nH]c3ccccc23)C(=O)N[C@H](CCC(=O)O)C(=O)N[C@H](Cc2ccc(O)cc2)C(=O)N[C@H](CCCCN)C(N)=O)NC1=O` [compound 201] (HELM PEPTIDE1{[meR].S.D.T.L.[Pen].W.[dE].[dY].[dK].[am]}|CHEM1{[O=C(c1ccccc1C[*:2])[*:1]]}$PEPTIDE1,CHEM1,1:R1-1:R1|PEPTIDE1,CHEM1,6:R3-1:R2$$$V2.0) cannot be ordered by IC50: under 25 nM for the first, under 25 nM for the second.

`CC(C)C[C@@H]1NC(=O)[C@H]([C@@H](C)O)NC(=O)[C@H](CC(=O)O)NC(=O)[C@H](CO)NC(=O)[C@H](CCCNC(=N)N)N(C)C(=O)c2ccccc2CSC(C)(C)[C@@H](C(=O)N[C@@H](Cc2c[nH]c3ccccc23)C(=O)N[C@H](CCC(=O)O)C(=O)N[C@H](Cc2c[nH]cn2)C(=O)N[C@H](CCCCN)C(N)=O)NC1=O` [compound 199] (HELM PEPTIDE1{[meR].S.D.T.L.[Pen].W.[dE].[dH].[dK].[am]}|CHEM1{[O=C(c1ccccc1C[*:2])[*:1]]}$PEPTIDE1,CHEM1,1:R1-1:R1|PEPTIDE1,CHEM1,6:R3-1:R2$$$V2.0) and `CC(C)C[C@@H]1NC(=O)[C@H]([C@@H](C)O)NC(=O)[C@H](CC(=O)O)NC(=O)[C@H](CO)NC(=O)[C@H](CCCNC(=N)N)N(C)C(=O)c2ccccc2CSC(C)(C)[C@@H](C(=O)N[C@@H](Cc2c[nH]c3ccccc23)C(=O)N[C@H](CCC(=O)O)C(=O)N[C@H](CO)C(=O)N[C@H](CCCCN)C(N)=O)NC1=O` [compound 197] (HELM PEPTIDE1{[meR].S.D.T.L.[Pen].W.[dE].[dS].[dK].[am]}|CHEM1{[O=C(c1ccccc1C[*:2])[*:1]]}$PEPTIDE1,CHEM1,1:R1-1:R1|PEPTIDE1,CHEM1,6:R3-1:R2$$$V2.0) cannot be ordered by IC50: under 25 nM for the first, under 25 nM for the second.
